Measurements as given in patent publication US9957267B2, “Somatostatin modulators and uses thereof” (Crinetics Pharmaceuticals, Inc., priority 2015, dated 2018).
Like-named read-outs stand apart in the source and are kept apart here.

Legend:
Format in all cases: cell-based
[1] = molecular target: SSTR3 (UniProt P32745); experiment: cAMP functional agonist assay, CHO cells expressing SSTR3; settings: CHO cells stably expressing SSTR3, cAMP
Method: (§1) Chinese hamster ovary (CHO) cells stably expressing one of the six human or rodent somatostatin receptor subtypes are grown to 85-100% confluence on standard tissue culture dishes in F12-Ham's growth media (Hyclone) with following additives: 10% donor calf serum (Hyclone), 200 U/mL penicillin (Hyclone), 200 μg/mL streptomycin (Hyclone), 20 mM HEPES (Hyclone), 200 μg/mL hygromycin Hyclone.
(§2) General overview: All SSTR subtypes are Gi coupled G-protein coupled receptors (GPCRs) that lead to decreases in intracellular cyclic AMP (cAMP) when activated by an agonist. Therefore, measurement of intracellular cAMP levels can be used to assess whether compounds of the invention are agonists of SSTR subtypes (John Kelly, Troy Stevens, W. Joseph Thompson, and Roland Seifert, Current Protocols in Pharmacology, 2005, 2.2.1-2.2). One example of an intracellular cAMP assay is described below.

[2] = molecular target: T1, SSTR1 (Homo sapiens, UniProt P30872); experiment: cAMP functional agonist assay, CHO cells expressing SSTR1
T1 construct: expressed in transfected cells
Method: as §1
(§3) General overview: All SSTR subtypes are Gi coupled G-protein coupled receptors (GPCRs) that lead to decreases in intracellular cyclic AMP (cAMP) when activated by an agonist. […] One example of an intracellular cAMP assay is described below.

[3] = molecular target: T2, SSTR5 (Homo sapiens, UniProt P35346); experiment: cAMP functional agonist assay, CHO cells expressing SSTR5; settings: CHO cells stably expressing SSTR5, cAMP
T2 construct: expressed in transfected cells
Method: as §1, §2

[4] = molecular target: T3, SSTR4 (Homo sapiens, UniProt P31391); experiment: cAMP functional agonist assay, CHO cells expressing SSTR4
T3 construct: expressed in transfected cells
Method: as §1, §3

[5] = CHO cells stably expressing SSTR1, cAMP, read-out: SSTR1 EC50

T3 sequence (P31391 whole entry): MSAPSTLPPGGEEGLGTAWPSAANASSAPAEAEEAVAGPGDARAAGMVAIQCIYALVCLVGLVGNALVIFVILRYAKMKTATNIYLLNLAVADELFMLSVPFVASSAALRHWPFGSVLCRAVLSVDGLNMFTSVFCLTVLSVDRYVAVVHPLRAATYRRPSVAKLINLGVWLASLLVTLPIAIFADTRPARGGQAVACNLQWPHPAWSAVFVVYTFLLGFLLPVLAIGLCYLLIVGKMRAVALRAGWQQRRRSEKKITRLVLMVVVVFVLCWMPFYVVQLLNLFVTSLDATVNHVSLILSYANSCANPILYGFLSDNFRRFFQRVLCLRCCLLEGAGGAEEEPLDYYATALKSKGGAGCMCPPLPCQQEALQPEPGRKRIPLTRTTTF
T2 sequence (P35346 whole entry): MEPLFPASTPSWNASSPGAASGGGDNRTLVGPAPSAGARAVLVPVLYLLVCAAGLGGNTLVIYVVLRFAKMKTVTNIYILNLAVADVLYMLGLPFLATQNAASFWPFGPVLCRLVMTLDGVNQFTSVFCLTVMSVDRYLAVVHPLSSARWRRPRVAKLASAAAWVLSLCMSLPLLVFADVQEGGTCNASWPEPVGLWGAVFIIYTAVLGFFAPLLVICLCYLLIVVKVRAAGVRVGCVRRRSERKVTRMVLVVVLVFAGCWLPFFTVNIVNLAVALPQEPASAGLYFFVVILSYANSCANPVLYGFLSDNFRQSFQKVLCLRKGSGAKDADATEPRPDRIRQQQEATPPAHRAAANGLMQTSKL
Chain of SSTR3 (P32745 whole entry): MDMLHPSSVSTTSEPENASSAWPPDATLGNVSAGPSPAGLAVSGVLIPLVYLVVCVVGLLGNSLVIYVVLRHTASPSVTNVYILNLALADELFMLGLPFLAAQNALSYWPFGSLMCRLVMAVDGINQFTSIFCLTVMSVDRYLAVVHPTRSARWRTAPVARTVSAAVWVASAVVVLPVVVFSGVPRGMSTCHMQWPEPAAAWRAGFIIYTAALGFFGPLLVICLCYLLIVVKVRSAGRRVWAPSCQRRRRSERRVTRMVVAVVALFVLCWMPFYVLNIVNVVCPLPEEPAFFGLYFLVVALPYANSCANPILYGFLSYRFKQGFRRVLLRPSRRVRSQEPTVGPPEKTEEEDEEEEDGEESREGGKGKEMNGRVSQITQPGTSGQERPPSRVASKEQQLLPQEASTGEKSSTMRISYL
T1 sequence (P30872 whole entry): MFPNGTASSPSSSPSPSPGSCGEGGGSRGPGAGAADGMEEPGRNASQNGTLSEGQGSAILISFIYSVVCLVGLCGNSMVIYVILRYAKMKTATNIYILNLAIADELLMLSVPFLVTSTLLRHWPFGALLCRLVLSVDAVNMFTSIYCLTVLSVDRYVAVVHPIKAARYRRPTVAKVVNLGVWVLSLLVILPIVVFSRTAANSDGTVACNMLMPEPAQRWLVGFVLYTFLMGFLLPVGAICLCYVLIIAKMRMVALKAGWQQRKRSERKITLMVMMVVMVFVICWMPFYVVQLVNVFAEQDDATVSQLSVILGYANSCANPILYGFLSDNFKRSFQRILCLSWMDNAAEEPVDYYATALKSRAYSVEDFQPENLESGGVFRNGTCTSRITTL

EC50 [1] [nM] | EC50 [2, 5] [nM] | EC50 [3] [nM] | EC50 [4] [nM] | EC50 [2] [nM] | EC50 ([4]; CHO cells stably expressing SSTR4, cAMP, read-out: SSTR4 EC50) [nM] | Compound
< 100 |  | 100 to 10000 | < 100 | 100 to 10000 |  | Cc1cc(C)cc(-c2cnc3ncn(-c4cccc(O)c4)c(=O)c3c2CN(C)C[C@@H]2CCCCN2)c1 [Compound A-15, 6-(3,5-dimethylphenyl)-3-(3-hydroxyphenyl)-5-({methyl[(2S)-piperidin-2-ylmethyl]amino}methyl)-3H,4H-pyrido[2,3-d]pyrimidin-4-one]
< 100 |  | > 10000 | < 100 |  |  | Cc1cc(C)cc(-c2cnc3ncn(-c4cccc(O)c4)c(=O)c3c2CN(C)CC2COCCN2)c1 (centres unmarked) [Compound A-19, 6-(3,5-dimethylphenyl)-3-(3-hydroxyphenyl)-5-{[methyl(morpholin-3-ylmethyl)amino]methyl}-3H,4H-pyrido[2,3-d]pyrimidin-4-one]
< 100 |  | > 10000 | < 100 | > 10000 |  | Cc1cc(C)cc(-c2cnc3ncn(-c4cccc(O)c4)c(=O)c3c2CN(C)C[C@H]2CCCCN2)c1 [Compound A-14, 6-(3,5-dimethylphenyl)-3-(3-hydroxyphenyl)-5-({methyl[(2R)-piperidin-2-ylmethyl]amino}methyl)-3H,4H-pyrido[2,3-d]pyrimidin-4-one]
< 100 |  | > 10000 | < 100 | > 10000 |  | Cc1cc(C)cc(-c2cnc3ncn(-c4cccc(O)c4)c(=O)c3c2CN(C)C[C@H]2CCCN2)c1 [Compound A-16, 6-(3,5-dimethylphenyl)-3-(3-hydroxyphenyl)-5-({methyl[(2R)-pyrrolidin-2-ylmethyl]amino}methyl)-3H,4H-pyrido[2,3-d]pyrimidin-4-one]
100 to 10000 |  | 100 to 10000 | < 100 |  |  | Cc1cc(C)cc(-c2cnc3ncn(-c4cccc(O)c4)c(=O)c3c2CN(C)CC2(N)CCCC2)c1 [Compound A-12, 5-({[(1-aminocyclopentyl)methyl](methyl)amino}methyl)-6-(3,5-dimethylphenyl)-3-(3-hydroxyphenyl)-3H,4H-pyrido[2,3-d]pyrimidin-4-one]
100 to 10000 |  |  | < 100 |  |  | Cc1cc(C)cc(-c2cnc3ncn(-c4cccc(O)c4)c(=O)c3c2CN(C)C(C)CN)c1 (centres unmarked) [Compound A-7, 5-{[(1-aminopropan-2-yl)(methyl)amino]methyl}-6-(3,5-dimethylphenyl)-3-(3-hydroxyphenyl)-3H,4H-pyrido[2,3-d]pyrimidin-4-one]
< 100 |  | > 10000 | < 100 | 100 to 10000 |  | Cc1cc(C)cc(-c2cnc3ncn(-c4cccc(O)c4)c(=O)c3c2CN(C)CC2CCCCN2)c1 (centres unmarked) [Compound A-13, 6-(3,5-dimethylphenyl)-3-(3-hydroxyphenyl)-5-{[methyl(piperidin-2-ylmethyl)amino]methyl}-3H,4H-pyrido[2,3-d]pyrimidin-4-one]
< 100 |  |  | < 100 | 100 to 10000 |  | Cc1cc(C)cc(-c2cnc3ncn(-c4cccc(O)c4)c(=O)c3c2CN(C)C[C@@H]2CCCN2)c1 [Compound A-17, 6-(3,5-dimethylphenyl)-3-(3-hydroxyphenyl)-5-({methyl[(2S)-pyrrolidin-2-ylmethyl]amino}methyl)-3H,4H-pyrido[2,3-d]pyrimidin-4-one]
100 to 10000 |  |  | < 100 | 100 to 10000 |  | Cc1cc(C)cc(-c2cnc3ncn(-c4cccc(O)c4)c(=O)c3c2CN(C)C[C@@H]2CCN2)c1 [Compound A-18, 5-({[(2S)-azetidin-2-ylmethyl](methyl)amino}methyl)-6-(3,5-dimethylphenyl)-3-(3-hydroxyphenyl)-3H,4H-pyrido[2,3-d]pyrimidin-4-one]
100 to 10000 |  | > 10000 | < 100 |  |  | Cc1cc(C)cc(-c2cnc3ncn(-c4cccc(O)c4)c(=O)c3c2CN(C)C[C@H](C)N)c1 [Compound A-8, 5-({[(2S)-2-aminopropyl](methyl)amino}methyl)-6-(3,5-dimethylphenyl)-3-(3-hydroxyphenyl)-3H,4H-pyrido[2,3-d]pyrimidin-4-one]
100 to 10000 |  | > 10000 |  | > 10000 | < 100 | Cc1cc(C)cc(-c2cnc3ncn(-c4cccc(O)c4)c(=O)c3c2CN(C)CCN)c1 [Compound A-1, 5-{[(2-aminoethyl)(methyl)amino]methyl}-6-(3,5-dimethylphenyl)-3-(3-hydroxyphenyl)-3H,4H-pyrido[2,3-d]pyrimidin-4-one]

Further lines, the compound ahead of its results:

Compound | EC50 [1] [nM] | EC50 [2, 5] [nM] | EC50 [3] [nM] | EC50 [4] [nM] | EC50 [2] [nM] | EC50 ([4]; CHO cells stably expressing SSTR4, cAMP, read-out: SSTR4 EC50) [nM]
Cc1cc(Cl)cc(-c2cnc3ncn(-c4cc(O)cc(F)c4)c(=O)c3c2CN(C)C[C@H]2CCCN2)c1 [Compound A-53, 6-(3-chloro-5-methylphenyl)-3-(3-fluoro-5-hydroxyphenyl)-5-({methyl[(2R)-pyrrolidin-2-ylmethyl]amino}methyl)-3H,4H-pyrido[2,3-d]pyrimidin-4-one] | < 100 | 100 to 10000 | > 10000 |  |  | 
Cc1cc(C)cc(-c2cnc3ncn(-c4cc(C)cc(O)c4)c(=O)c3c2CN(C)C[C@@H]2CCCN2)c1 [Compound A-44, 6-(3,5-dimethylphenyl)-3-(3-hydroxy-5-methylphenyl)-5-({methyl[(2S)-pyrrolidin-2-ylmethyl]amino}methyl)-3H,4H-pyrido[2,3-d]pyrimidin-4-one] | < 100 |  | > 10000 | < 100 | 100 to 10000 | 
Cc1cc(C)cc(-c2cnc3ncn(-c4cc(O)cc(F)c4)c(=O)c3c2CN(C)C[C@@H]2CCCN2)c1 [Compound A-45, 6-(3,5-dimethylphenyl)-3-(3-fluoro-5-hydroxyphenyl)-5-({methyl[(2S)-pyrrolidin-2-ylmethyl]amino}methyl)-3H,4H-pyrido[2,3-d]pyrimidin-4-one] | < 100 |  | > 10000 | < 100 | 100 to 10000 | 
Cc1cc(C)cc(-c2cnc3ncn(-c4ccc(O)cc4)c(=O)c3c2CN(C)C[C@@H]2CCCN2)c1 [Compound A-41, 6-(3,5-dimethylphenyl)-3-(4-hydroxyphenyl)-5-({methyl[(2S)-pyrrolidin-2-ylmethyl]amino}methyl)-3H,4H-pyrido[2,3-d]pyrimidin-4-one] | 100 to 10000 |  |  | < 100 |  | 
Cc1cc(C)cc(-c2cnc3ncn(-c4cccc(C(N)=O)c4)c(=O)c3c2CN(C)C[C@@H]2CCCN2)c1 [Compound A-39, 3-[6-(3,5-dimethylphenyl)-5-({methyl[(2S)-pyrrolidin-2-ylmethyl]amino}methyl)-4-oxo-3H,4H-pyrido[2,3-d]pyrimidin-3-yl]benzamide] | 100 to 10000 |  | > 10000 | < 100 | > 10000 | 
COc1cccc(-n2cnc3ncc(-c4cc(C)cc(C)c4)c(CN(C)C[C@@H]4CCCN4)c3c2=O)c1 [Compound A-33, 6-(3,5-dimethylphenyl)-3-(3-methoxyphenyl)-5-({methyl[(2S)-pyrrolidin-2-ylmethyl]amino}methyl)-3H,4H-pyrido[2,3-d]pyrimidin-4-one] | 100 to 10000 |  |  | < 100 |  | 
CN(Cc1c(-c2cc(F)cc(Cl)c2)cnc2ncn(-c3cccc(O)c3)c(=O)c12)C[C@@H]1CCCN1 [Compound A-35, 6-(3-chloro-5-fluorophenyl)-3-(3-hydroxyphenyl)-5-({methyl[(2S)-pyrrolidin-2-ylmethyl]amino}methyl)-3H,4H-pyrido[2,3-d]pyrimidin-4-one] | < 100 |  | 100 to 10000 | < 100 | 100 to 10000 | 
Cc1cc(Cl)cc(-c2cnc3ncn(-c4cc(O)cc(F)c4)c(=O)c3c2CN(C)C[C@@H]2CCCN2)c1 [Compound A-47, 6-(3-chloro-5-methylphenyl)-3-(3-fluoro-5-hydroxyphenyl)-5-({methyl[(2S)-pyrrolidin-2-ylmethyl]amino}methyl)-3H,4H-pyrido[2,3-d]pyrimidin-4-one] | < 100 | 100 to 10000 | 100 to 10000 |  |  | 
Cc1cc(C)cc(-c2cnc3ncn(-c4cccc(O)c4)c(=O)c3c2CN2CCCC2CN)c1 (centres unmarked) [Compound A-11, 5-{[2-(aminomethyl)pyrrolidin-1-yl]methyl}-6-(3,5-dimethylphenyl)-3-(3-hydroxyphenyl)-3H,4H-pyrido[2,3-d]pyrimidin-4-one] |  |  |  | < 100 | 100 to 10000 | 
Cc1cc(C)cc(-c2cnc3ncn(-c4cccc(O)c4)c(=O)c3c2CN2CCC(N)C2)c1 (centres unmarked) [Compound A-10, 5-[(3-aminopyrrolidin-1-yl)methyl]-6-(3,5-dimethylphenyl)-3-(3-hydroxyphenyl)-3H,4H-pyrido[2,3-d]pyrimidin-4-one] | > 10000 |  |  | 100 to 10000 |  | 
Cc1cc(C)cc(-c2cnc3ncn(-c4cccc(CO)c4)c(=O)c3c2CN(C)C[C@@H]2CCCN2)c1 [Compound A-40, 6-(3,5-dimethylphenyl)-3-[3-(hydroxymethyl)phenyl]-5-({methyl[(2S)-pyrrolidin-2-ylmethyl]amino}methyl)-3H,4H-pyrido[2,3-d]pyrimidin-4-one] | 100 to 10000 |  |  | < 100 |  | 
CNC(=O)c1cccc(-n2cnc3ncc(-c4cc(C)cc(C)c4)c(CN(C)C[C@@H]4CCCN4)c3c2=O)c1 [Compound A-43, 3-[6-(3,5-dimethylphenyl)-5-({methyl[(2S)-pyrrolidin-2-ylmethyl]amino}methyl)-4-oxo-3H,4H-pyrido[2,3-d]pyrimidin-3-yl]-N-methylbenzamide] | 100 to 10000 |  |  | < 100 |  | 
